Laboratory results as given in ChEMBL document CHEMBL1154382, “Preliminary SAR analysis of novel antiproliferative N(6),5'-bis-ureidoadenosine derivatives” (2009).

What was measured:
Assay type in all cases: functional
Conditions in all cases: values are per cent of control
[1] = Antiproliferative activity against human Hs 578T cells at 10 uM assessed as cell growth inhibition relative to control
[2] = system: SK-MEL-5; test: Antiproliferative activity against human SK-MEL-5 cells at 10 uM assessed as cell growth inhibition relative to control
[3] = system: SK-MEL-2; test: Antiproliferative activity against human SK-MEL-2 cells at 10 uM assessed as cell growth inhibition relative to control
[4] = system: SK-OV-3; test: Antiproliferative activity against human SKOV3 cells at 10 uM assessed as cell growth inhibition relative to control
[5] = system: NCI-H322M; test: Antiproliferative activity against human NCI-H322M cells at 10 uM assessed as cell growth inhibition relative to control
[6] = system: SF-268; test: Antiproliferative activity against human SF268 cells at 10 uM assessed as cell growth inhibition relative to control
[7] = system: PC-3; test: Antiproliferative activity against human PC3 cells at 10 uM assessed as cell growth inhibition relative to control
[8] = system: LOX IMVI; test: Antiproliferative activity against human LOXIMVI cells at 10 uM assessed as cell growth inhibition relative to control
[9] = system: KM12; test: Antiproliferative activity against human KM12 cells at 10 uM assessed as cell growth inhibition relative to control
[10] = system: NCI-H23; test: Antiproliferative activity against human NCI-H23 cells at 10 uM assessed as cell growth inhibition relative to control
[11] = Antiproliferative activity against human […] cells at 10 uM assessed as cell growth inhibition relative to control
[12] = system: Malme-3M; test: Antiproliferative activity against human MALME-3M cells at 10 uM assessed as cell growth inhibition relative to control
[13] = system: MDA-MB-231; test: Antiproliferative activity against human MDA-MB-231 cells at 10 uM assessed as cell growth inhibition relative to control
[14] = system: UACC-257; test: Antiproliferative activity against human UACC257 cells at 10 uM assessed as cell growth inhibition relative to control
[15] = system: UACC-62; test: Antiproliferative activity against human UACC62 cells at 10 uM assessed as cell growth inhibition relative to control
[16] = system: NCI-H460; test: Antiproliferative activity against human NCI-H460 cells at 10 uM assessed as cell growth inhibition relative to control
[17] = system: SN12C; test: Antiproliferative activity against human SN12C cells at 10 uM assessed as cell growth inhibition relative to control
[18] = system: CCRF-CEM; test: Antiproliferative activity against human CCRF-CEM cells at 10 uM assessed as cell growth inhibition relative to control
[19] = system: HCT-15; test: Antiproliferative activity against human HCT15 cells at 10 uM assessed as cell growth inhibition relative to control
[20] = system: OVCAR-8; test: Antiproliferative activity against human OVCAR8 cells at 10 uM assessed as cell growth inhibition relative to control
[21] = system: EKVX; test: Antiproliferative activity against human EKVX cells at 10 uM assessed as cell growth inhibition relative to control
[22] = system: SNB-75; test: Antiproliferative activity against human SNB75 cells at 10 uM assessed as cell growth inhibition relative to control
[23] = system: COLO 205; test: Antiproliferative activity against human COLO205 cells at 10 uM assessed as cell growth inhibition relative to control
[24] = system: IGROV-1; test: Antiproliferative activity against human IGROV1 cells at 10 uM assessed as cell growth inhibition relative to control
[25] = system: MDA-MB-468; test: Antiproliferative activity against human MDA-MB-468 cells at 10 uM assessed as cell growth inhibition relative to control
[26] = system: SK-MEL-28; test: Antiproliferative activity against human SK-MEL-28 cells at 10 uM assessed as cell growth inhibition relative to control
[27] = system: DU-145; test: Antiproliferative activity against human DU145 cells at 10 uM assessed as cell growth inhibition relative to control
[28] = system: SF-295; test: Antiproliferative activity against human SF295 cells at 10 uM assessed as cell growth inhibition relative to control
[29] = system: A498; test: Antiproliferative activity against human A498 cells at 10 uM assessed as cell growth inhibition relative to control
[30] = system: M14; test: Antiproliferative activity against human M14 cells at 10 uM assessed as cell growth inhibition relative to control
[31] = system: HCT-116; test: Antiproliferative activity against human HCT116 cells at 10 uM assessed as cell growth inhibition relative to control
[32] = system: OVCAR-4; test: Antiproliferative activity against human OVCAR4 cells at 10 uM assessed as cell growth inhibition relative to control
[33] = system: 786-0; test: Antiproliferative activity against human 786-0 cells at 10 uM assessed as cell growth inhibition relative to control
[34] = system: A549; test: Antiproliferative activity against human A549 cells at 10 uM assessed as cell growth inhibition relative to control
[35] = system: SNB-19; test: Antiproliferative activity against human SNB19 cells at 10 uM assessed as cell growth inhibition relative to control
[36] = system: HL-60(TB); test: Antiproliferative activity against human HL-60(TB) cells at 10 uM assessed as cell growth inhibition relative to control
[37] = system: SW-620; test: Antiproliferative activity against human SW620 cells at 10 uM assessed as cell growth inhibition relative to control
[38] = system: OVCAR-5; test: Antiproliferative activity against human OVCAR5 cells at 10 uM assessed as cell growth inhibition relative to control
[39] = system: ACHN; test: Antiproliferative activity against human ACHN cells at 10 uM assessed as cell growth inhibition relative to control
[40] = system: CAKI-1; test: Antiproliferative activity against human Caki1 cells at 10 uM assessed as cell growth inhibition relative to control
[41] = system: HCC 2998; test: Antiproliferative activity against human HCC2998 cells at 10 uM assessed as cell growth inhibition relative to control
[42] = system: NCI-H226; test: Antiproliferative activity against human NCI-H226 cells at 10 uM assessed as cell growth inhibition relative to control
[43] = system: MOLT-4; test: Antiproliferative activity against human MOLT4 cells at 10 uM assessed as cell growth inhibition relative to control
[44] = system: SF-539; test: Antiproliferative activity against human SF539 cells at 10 uM assessed as cell growth inhibition relative to control
[45] = system: UO-31; test: Antiproliferative activity against human UO31 cells at 10 uM assessed as cell growth inhibition relative to control
[46] = system: HOP-62; test: Antiproliferative activity against human HOP62 cells at 10 uM assessed as cell growth inhibition relative to control
[47] = system: HOP-92; test: Antiproliferative activity against human HOP92 cells at 10 uM assessed as cell growth inhibition relative to control
[48] = system: MCF7; test: Antiproliferative activity against human MCF7 cells at 10 uM assessed as cell growth inhibition relative to control
[49] = system: HT-29; test: Antiproliferative activity against human HT-29 cells at 10 uM assessed as cell growth inhibition relative to control
[50] = system: OVCAR-3; test: Antiproliferative activity against human OVCAR-3 cells at 10 uM assessed as cell growth inhibition relative to control
[51] = system: U-251; test: Antiproliferative activity against human U251 cells at 10 uM assessed as cell growth inhibition relative to control
[52] = system: T47D; test: Antiproliferative activity against human T47D cells at 10 uM assessed as cell growth inhibition relative to control
[53] = system: RXF 393; test: Antiproliferative activity against human RXF393 cells at 10 uM assessed as cell growth inhibition relative to control
[54] = system: K562; test: Antiproliferative activity against human K562 cells at 10 uM assessed as cell growth inhibition relative to control
[55] = system: BT-549; test: Antiproliferative activity against human BT549 cells at 10 uM assessed as cell growth inhibition relative to control
[56] = system: NCI-H522; test: Antiproliferative activity against human NCI-H522 cells at 10 uM assessed as cell growth inhibition relative to control
[57] = system: TK-10; test: Antiproliferative activity against human TK10 cells at 10 uM assessed as cell growth inhibition relative to control

Question: Which growth, % of control at 10 µM [1] does the source give for `CCOC(=O)C[C@H]1[C@@H](O[Si](C)(C)C(C)(C)C)[C@H](n2cnc3c(N)ncnc32)O[C@@H]1CNC(=O)NC` here?
Answer: 98%

Question: And the growth, % of control at 10 µM [2]?
Answer: 94%

Question: And the growth, % of control at 10 µM [3]?
Answer: 91%

Question: What about the growth, % of control at 10 µM [4] of the same molecule?
Answer: 110%

Question: And the growth, % of control at 10 µM [5]?
Answer: 94%

Question: And the growth, % of control at 10 µM [6]?
Answer: 97%

Question: And the growth, % of control at 10 µM [7]?
Answer: 98%

Question: And the growth, % of control at 10 µM [8]?
Answer: 92%

Question: And the growth, % of control at 10 µM [9]?
Answer: 103%

Question: What about the growth, % of control at 10 µM [10] of the same molecule?
Answer: 97%

Question: And the growth, % of control at 10 µM [11]?
Answer: 98%

Question: And the growth, % of control at 10 µM [12]?
Answer: 95%

Question: What about the growth, % of control at 10 µM [13] of the same molecule?
Answer: 96%

Question: What about the growth, % of control at 10 µM [14] of the same molecule?
Answer: 86%

Question: And the growth, % of control at 10 µM [15]?
Answer: 80%

Question: And the growth, % of control at 10 µM [16]?
Answer: 111%

Question: And the growth, % of control at 10 µM [17]?
Answer: 88%

Question: And the growth, % of control at 10 µM [18]?
Answer: 98%

Question: What about the growth, % of control at 10 µM [19] of the same molecule?
Answer: 97%

Question: And the growth, % of control at 10 µM [20]?
Answer: 100%

Question: What about the growth, % of control at 10 µM [21] of the same molecule?
Answer: 92%

Question: And the growth, % of control at 10 µM [22]?
Answer: 86%

Question: What about the growth, % of control at 10 µM [23] of the same molecule?
Answer: 117%

Question: And the growth, % of control at 10 µM [24]?
Answer: 97%

Question: And the growth, % of control at 10 µM [25]?
Answer: 92%

Question: And the growth, % of control at 10 µM [26]?
Answer: 107%

Question: What about the growth, % of control at 10 µM [27] of the same molecule?
Answer: 98%

Question: What about the growth, % of control at 10 µM [28] of the same molecule?
Answer: 101%

Question: What about the growth, % of control at 10 µM [29] of the same molecule?
Answer: 109%

Question: And the growth, % of control at 10 µM [30]?
Answer: 106%

Question: What about the growth, % of control at 10 µM [31] of the same molecule?
Answer: 100%

Question: What about the growth, % of control at 10 µM [32] of the same molecule?
Answer: 99%

Question: And the growth, % of control at 10 µM [33]?
Answer: 93%

Question: What about the growth, % of control at 10 µM [34] of the same molecule?
Answer: 84%

Question: And the growth, % of control at 10 µM [35]?
Answer: 99%

Question: And the growth, % of control at 10 µM [36]?
Answer: 107%

Question: What about the growth, % of control at 10 µM [37] of the same molecule?
Answer: 96%

Question: What about the growth, % of control at 10 µM [38] of the same molecule?
Answer: 87%

Question: What about the growth, % of control at 10 µM [39] of the same molecule?
Answer: 90%

Question: What about the growth, % of control at 10 µM [40] of the same molecule?
Answer: 96%

Question: And the growth, % of control at 10 µM [41]?
Answer: 84%

Question: And the growth, % of control at 10 µM [42]?
Answer: 99%

Question: And the growth, % of control at 10 µM [43]?
Answer: 108%

Question: What about the growth, % of control at 10 µM [44] of the same molecule?
Answer: 97%

Question: What about the growth, % of control at 10 µM [45] of the same molecule?
Answer: 87%

Question: What about the growth, % of control at 10 µM [46] of the same molecule?
Answer: 84%

Question: What about the growth, % of control at 10 µM [47] of the same molecule?
Answer: 94%

Question: What about the growth, % of control at 10 µM [48] of the same molecule?
Answer: 87%

Question: And the growth, % of control at 10 µM [49]?
Answer: 111%

Question: What about the growth, % of control at 10 µM [50] of the same molecule?
Answer: 98%

Question: What about the growth, % of control at 10 µM [51] of the same molecule?
Answer: 98%

Question: What about the growth, % of control at 10 µM [52] of the same molecule?
Answer: 95%

Question: What about the growth, % of control at 10 µM [53] of the same molecule?
Answer: 138%

Question: And the growth, % of control at 10 µM [54]?
Answer: 106%

Question: What about the growth, % of control at 10 µM [55] of the same molecule?
Answer: 85%

Question: And the growth, % of control at 10 µM [56]?
Answer: 79%

Question: And the growth, % of control at 10 µM [57]?
Answer: 101%
